pKd: −log10 of the molar value.
Molecular target: O-GlcNAcase (OGA) (Mus musculus, UniProt Q9EQQ9)
Experiment: biochemical

Sequence of O-GlcNAcase (OGA) (Q9EQQ9 whole entry): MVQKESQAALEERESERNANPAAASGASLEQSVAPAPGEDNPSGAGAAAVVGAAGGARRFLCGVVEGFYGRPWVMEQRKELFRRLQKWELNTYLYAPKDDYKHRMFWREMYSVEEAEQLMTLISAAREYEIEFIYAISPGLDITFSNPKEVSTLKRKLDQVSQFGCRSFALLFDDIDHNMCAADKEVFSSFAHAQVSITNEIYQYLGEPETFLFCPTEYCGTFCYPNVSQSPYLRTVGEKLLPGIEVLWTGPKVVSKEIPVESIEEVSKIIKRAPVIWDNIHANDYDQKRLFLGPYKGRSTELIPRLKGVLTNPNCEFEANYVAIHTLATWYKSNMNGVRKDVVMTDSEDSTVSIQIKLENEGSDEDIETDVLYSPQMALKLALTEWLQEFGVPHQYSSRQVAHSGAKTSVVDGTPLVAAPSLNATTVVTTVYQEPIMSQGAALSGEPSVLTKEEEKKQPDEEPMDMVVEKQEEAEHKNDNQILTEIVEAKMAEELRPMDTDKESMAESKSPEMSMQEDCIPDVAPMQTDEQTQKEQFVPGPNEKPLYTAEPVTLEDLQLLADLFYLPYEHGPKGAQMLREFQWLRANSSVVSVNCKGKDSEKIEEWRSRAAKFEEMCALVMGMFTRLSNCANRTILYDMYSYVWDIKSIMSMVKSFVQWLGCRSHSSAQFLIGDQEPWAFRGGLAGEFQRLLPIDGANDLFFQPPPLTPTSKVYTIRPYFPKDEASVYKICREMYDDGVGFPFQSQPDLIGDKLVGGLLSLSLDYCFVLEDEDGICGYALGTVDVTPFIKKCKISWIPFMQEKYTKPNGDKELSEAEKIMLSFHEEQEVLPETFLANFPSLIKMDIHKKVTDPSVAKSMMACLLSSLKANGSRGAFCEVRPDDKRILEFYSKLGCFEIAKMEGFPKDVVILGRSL

pKd: 8.77
Compound: CCNC1=N[C@@H]2[C@@H](O)[C@H](O)[C@@H](CO)O[C@@H]2S1 [Thiamet G]
